Experimental findings from US6579861B2, “1α-hydroxy-2-methylene-19-nor-homopregnacalciferol and its uses” (Wisconsin Alumni Research Foundation, priority 2000, dated 2003) are described below.

Structures are written as SMILES. “Also recorded” adds a separate entry of the source.

Experiment [1] has as its system Sprague-Dawley rats. The experiment can be described thus: Pre-dose and post-dose serum calcium (bone mobilization) after a single oral dose in rats. In kind it is in vivo, rat. Conditions: average of 6 rats; for Post-Dose serum calcium: about 24 h after a single 1 nmol oral dose (gavage, vegetable oil); for Pre-Dose serum calcium: baseline, about 24 h before sacrifice, before the 1 nmol oral dose. On the procedure: Weanling, male Sprague-Dawley rats (6/group) were placed on a vitamin D-deficient diet for a total of 5 weeks. During the first three weeks, the animals were fed a normal calcium diet (Diet 11+0.47% Ca+AEK supplement) and the last two weeks they were fed a low calcium diet (Diet 11+0.02% Ca+AEK supplement). Approximately 24 hours prior to sacrifice, animals were tail bled and then dosed with 1 nmol of the respective compounds. The doses were delivered orally in 100 microliters of vegetable oil by gavage. Serum was collected approximately 24 hour post-dose and it, along with the pre-dose serum, were subjected to total calcium analysis using atomic absorption spectrometry.

In experiment [2] the test system is Sprague-Dawley rats. As to the kind of experiment: Intestinal calcium transport after chronic i.p. doses in vitamin D-deficient rats. It counts as in vivo, rat. The following applies: for Intestinal Calcium Transport (S/M): vitamin D-deficient rats, low Ca diet, average ± SE, 5 animals. On the procedure:
(§1) Male, weanling Sprague-Dawley rats were placed on Diet 11 (0.47% Ca) diet+AEK for 11 days, followed by Diet 11 (0.02% Ca)+AEK for 31 days. Dosing (i.p.) began 7 days prior to sacrifice. Doses were given on a daily basis, 24 hours apart. The first 10 cm of the intestine was collected for gut transport studies and serum was collected for bone Ca mobilization analysis. The results are reported in Table 1 and illustrated in the graph of FIG. 2.

Experiment [3] deals with Sprague-Dawley rats. The experiment can be described thus: Serum calcium (bone calcium mobilization) after chronic i.p. doses in vitamin D-deficient rats. The following applies: for Serum Calcium (bone calcium mobilization): vitamin D-deficient rats, low Ca diet, average ± SE, 5 animals. In kind it is in vivo, rat. As for the experimental part: as §1
Experiment [4] concerns the target T1, vitamin D pig intestinal nuclear receptor (Sus scrofa, UniProt A3RGC1).
T1 construct: from tissue; host or cells: pig intestine (nuclear receptor preparation)
T1 sequence (A3RGC1 1-427): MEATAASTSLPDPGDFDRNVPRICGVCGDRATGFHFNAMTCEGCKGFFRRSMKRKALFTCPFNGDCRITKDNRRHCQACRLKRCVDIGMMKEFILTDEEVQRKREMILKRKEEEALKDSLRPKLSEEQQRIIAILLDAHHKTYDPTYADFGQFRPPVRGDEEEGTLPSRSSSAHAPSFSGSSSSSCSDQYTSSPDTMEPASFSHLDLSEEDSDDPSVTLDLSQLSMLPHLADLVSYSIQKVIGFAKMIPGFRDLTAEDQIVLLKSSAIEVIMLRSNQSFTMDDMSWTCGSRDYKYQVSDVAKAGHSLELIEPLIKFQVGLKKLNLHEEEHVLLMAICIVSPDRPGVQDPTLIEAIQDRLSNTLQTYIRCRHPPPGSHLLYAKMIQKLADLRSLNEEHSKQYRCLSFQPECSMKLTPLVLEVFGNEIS
As to the kind of experiment: Competitive binding of [3H]-1,25-(OH)2-D3 to the porcine intestinal vitamin D receptor. The following applies: FIG. 1, result in words. An excerpt: FIG. 1 is a graph illustrating the relative activity of 1α-hydroxy-2-methylene-19-nor-homopregnacalciferol and 1α,25-dihydroxyvitamin D3 to compete for binding of [^3H]-1,25-(OH)2-D3 to the vitamin D pig intestinal nuclear receptor;
The introduction of a methylene group to the 2-position of 1α-hydroxy-19-nor-homopregnacalciferol had little or no effect on binding to the porcine intestinal vitamin D receptor, as compared to 1α,25-dihydroxyvitamin D3.
Competitive binding of the analogs to the porcine intestinal receptor was carried out by the method described by Dame et al (Biochemistry 25, 4523-4534, 1986).

The test system of experiment [5] is HL-60 cells. The experiment can be described thus: Differentiation of HL-60 promyelocytes into monocytes. In kind it is cell-based. The following applies: FIG. 4; result in words. As for the experimental part: FIG. 4 is a graph illustrating the percent HL-60 cell differentiation as a function of the concentration of 1α-hydroxy-2-methylene-19-nor-homopregnacalciferol and of 1α,25-dihydroxyvitamin D3;
The differentiation of HL-60 promyelocytic into monocytes was determined as described by Ostrem et al (J. Biol. Chem. 262, 14164-14171, 1987).

The test system of experiment [6] is 24-hydroxylase (240Hase) gene promoter in ROS 17/2.8 (bone) cells. As to the kind of experiment: Transcriptional activity, 24-hydroxylase promoter luciferase reporter in bone cells. In kind it is cell-based. As for the experimental part: (§2) Transcriptional activity was measured in two different cell lines. ROS 17/2.8 (bone) or LLC (kidney) cells were stably transfected with a 24-hydroxylase (240Hase) gene promoter upstream of a luciferase reporter gene (Arbour et al, 1998). Cells were given a range of doses. Sixteen hours after dosing the cells were harvested and luciferase activities were measured using a luminometer. The EC50 of 1α-hydroxy-2-methylene-19-nor-homopregnacalciferol is about 10 times lower in bone cells than kidney cells. […] The graphs of FIGS. 5 and 6 are representative of 4 to 5 independent experiments. In FIGS. 5 and 6, RLU means relative luciferase units.
For orientation: A reporter such as luciferase makes a cellular process visible.

Experiment [7] has as its system 24-hydroxylase (240Hase) gene promoter in LLC (kidney) cells. The experiment can be described thus: Transcriptional activity, 24-hydroxylase promoter luciferase reporter in kidney cells. In kind it is cell-based. Conditions: 16 h after dosing, FIG. 6, result in words. As for the experimental part:
as §2

Setting [8] is: listed as 1α-hydroxy-2-methylene-19-nor-homopregnacalciferol.

Consider `C=C1[C@H](O)CC(=C/C=C2\CCC[C@]3(C)[C@@H]([C@@H](C)CCCC(C)(C)O)CC[C@@H]23)C[C@H]1O` [2-methylene-19-nor-20(S)-1α,25-dihydroxyvitamin D3], for which, in experiment [1], the Post-Dose serum calcium worked out at 7.33 mg/dL and the Pre-Dose serum calcium came out at 4.45 mg/dL.

With `C=C1/C(=C\C=C2/CCC[C@]3(C)[C@@H]([C@H](C)CCCC(C)(C)O)CC[C@@H]23)C[C@@H](O)C[C@@H]1O` [1,25-(OH)2D3, 1α,25-dihydroxyvitamin D3, reference compound], the “Intestinal Calcium Transport (S/M)” value is 5.21 ± 0.73 S/M in experiment [2] (250 pmol/day/7 days i.p.) and 6.85 ± 0.79 S/M in experiment [2] (500 pmol/day/7 days i.p.). Moreover, the entries for the “Serum Calcium (bone calcium mobilization)” value in experiment [3] (250 pmol/day/7 days i.p.) and in experiment [3] (500 pmol/day/7 days i.p.) were 7.40 ± 0.47 mg/100 ml and 7.20 ± 0.33 mg/100 ml, respectively. Besides, in experiment [1], the Post-Dose serum calcium turned out to be 5.42 mg/dL. Also, in experiment [1], the Pre-Dose serum calcium was 4.51 mg/dL.

Regarding `C=C1[C@H](O)CC(=C/C=C2\CCC[C@@]3(C)C2CCC3C(C)C)C[C@H]1O` (stereo partly drawn) [2MHP, 1α-hydroxy-2-methylene-19-nor-homopregnacalciferol], the results for the “Binding to the vitamin D receptor compared to 1,25-(OH)2D3” value in experiment [4] (setting [8]) and in experiment [4] (listed as 2 MHP) were “bound equally well to the porcine receptor as compared to the standard 1,25-(OH)2D3” and “slightly less active than 1,25(OH)2D3”, respectively. Further, the “Intestinal Calcium Transport (S/M)” value in experiment [2] (250 pmol/day/7 days i.p.) stood at 3.22 ± 0.14 S/M; in experiment [2] (500 pmol/day/7 days i.p.), 3.90 ± 0.38 S/M. The “Intestinal calcium transport activity compared to 1,25(OH)2D3” value in experiment [2] (Table 1 and FIG. 2, result in words) was “very little activity; also recorded: significantly less than that of 1,25-(OH)2D3”. Also, the “Serum Calcium (bone calcium mobilization)” value in experiment [3] (250 pmol/day/7 days i.p.) is 4.84 ± 0.37 mg/100 ml; in experiment [3] (500 pmol/day/7 days i.p.), 3.96 ± 0.19 mg/100 ml. Moreover, the “Bone calcium mobilization activity (raising serum calcium) compared to 1,25(OH)2D3” value in experiment [3] (Table 1, FIG. 3 and FIG. 7, result in words) is “very little bone calcium mobilization activity; also recorded: significantly less potent than 1,25(OH)2D3”. Also, in experiment [5], the “HL-60 differentiation potency compared to 1,25(OH)2D3” value is recorded as “almost as potent as 1,25(OH)2D3; also recorded: only slightly less active than 1,25-(OH)2D3”. Further, in experiment [6] (ROS 17/2.8 (bone) versus LLC (kidney) cells, luciferase reporter), the “EC50 in bone cells relative to kidney cells (times lower)” value is given as “about 10 times”. Further, the “Transcriptional activity in bone cells” value in experiment [6] (ROS 17/2.8 cells, 16 h after dosing, FIG. 5, result in words) was “has transcriptional activity in bone cells; also recorded: significant transcriptional activity”. For the same compound, the “Transcriptional activity in kidney cells” value in experiment [7] (setting [8]) is on record as “greater than or equivalent to 1,25(OH)2D3”; in experiment [7] (listed as 2 MHP), “has transcriptional activity in kidney cells; also recorded: significant transcriptional activity”. Also, the Post-Dose serum calcium in experiment [1] worked out at 4.36 mg/dL. For the same compound, the Pre-Dose serum calcium in experiment [1] stood at 4.86 mg/dL.
